Series [1] deals with psoriasis. The note with it: clinical data, cited from earlier work.
Series [2] in a line: amount of vitamin D3 in femoral muscles of rats 2 hours after ointment application or oral administration. The series is classed as in vivo, male Wistar-strain rats. On the procedure: (ii) Hair was removed from the femoral parts of five male Wistar-strain rats (body weight 220 to 230 g), and 100 mg of the ointment prepared in (i) was well rubbed into the hair-removed part of each animal. Two hours later, the rats were sacrificed, and the skin at the ointment-administeredsite was carefully removed and the muscles inside were taken out.

Series [3] concerns psoriasis vulgaris. The series is described as follows: therapeutic effect of ointment on psoriasis vulgaris of a person. The series is classed as in vivo. More on the design: key to degree of severity: 4: very serious; 3: serious; 2: medium; 1: light; 0: disappeared. On the procedure:
(i) A suitable amount of 1α,24(R)-dihydroxycholecalciferol was dissolved in diisopropyl adipate, and the solution was uniformly mixed with white vaseline to form an ointment. The mixing ratio of diisopropyl adipate to white vaseline was always maintained at 1:4 by weight, and the concentration of 1α,24(R)-dihydroxycholecalciferol in the ointment was adjusted to 400 micrograms/30 mg, 40 micrograms/30 mg, and 4 micrograms/30 mg.
(ii) Each of the three ointment thus prepared was applied to the site of psoriasis vulgaris of a person, and their therapeutic effects were evaluated. Specifically, ±he ointment having a 1α,24(R)-(OH)2 -D3 concentration of 400 micrograms/30 mg was applied twice daily each in an amount of 30 mg to psoriasis vulgaris at the lower part of the right femur (diseased part A). The ointment having a 1α,24(R)-(OH)2 -D3 concentration of 40 micrograms/[…] was applied twice a day each in an amount of 30 mg to psoriasis vulgaris at the lower part of the left femur (diseased part B). The ointment having a 1α,24(R)-(OH concentration of 4 micrograms/30 mg was applied twice a day each in an amount of 30 mg to psoriasis vulgaris at the middle part of the right femur (the diseased part C).
The therapeutic effects were evaluated on a scale of 5 grades as follows: […]

[4] abbreviates: control group, oral 0.5 microgram.
[5] abbreviates: ointment-applied group, 100 mg ointment (5 micrograms/g).

Where two headings read alike, the source gives them in different places.

As to `C=C1/C(=C\C=C2/CCC[C@]3(C)[C@@H]([C@H](C)CCCC(C)(C)O)CC[C@@H]23)C[C@@H](O)C[C@@H]1O` [1α,25-(OH)2 --D3, 1α,25-dihydroxycholecalciferol], the “effectiveness for the treatment of psoriasis” value in series [1] (external application) and in series [1] (oral administration) was “effective” each time.
As to `C=C1/C(=C\C=C2/CCC[C@]3(C)[C@@H]([C@H](C)CCCC(C)C)CC[C@@H]23)C[C@@H](O)C[C@@H]1O` [Example 1α-OH--D3, 1α-hydroxycholecalciferol], in series [2] (setting [4]), the “Amounts in the femoral muscles, 1st time (5 rats)” value turned out to be 103; the “Amounts in the femoral muscles, 2nd time (5 rats)” value is 98; the “Amounts in the femoral muscles, 3rd time (5 rats)” value was found to be 126. In addition, in series [2] (setting [5]), the “Amounts in the femoral muscles, 1st time (5 rats)” value is reported as 441; the “Amounts in the femoral muscles, 2nd time (5 rats)” value was 607; the “Amounts in the femoral muscles, 3rd time (5 rats)” value came out at 588. For the same compound, in series [1] (oral administration), the “effectiveness for the treatment of psoriasis” value is “effective”.
`C=C1/C(=C\C=C2/CCC[C@]3(C)[C@@H]([C@H](C)CC[C@@H](O)C(C)C)CC[C@@H]23)C[C@@H](O)C[C@@H]1O` [1α,24(R)-(OH)2 -D3, 1α,24(R)-dihydroxycholecalciferol]: in series [3] (after more than 30 days from stopping of drug application, diseased parts A to C), the relapse of lesion result is listed as “no relapse of lesion was noted”. For the same compound, the “therapeutic effect on psoriasis vulgaris” value in series [3] (external application, ointment) was “good therapeutic effect”. Further, the “improvement of diseased parts” value in series [3] (five days after beginning of treatment, diseased parts A to C (400, 40, 4 micrograms/30 mg, twice daily), original severity 4) is on record as “an improvement was observed in all cases”. The same compound displayed a degree of severity in series [3] (ten days, all cases cured, diseased parts A to C (400, 40, 4 micrograms/30 mg, twice daily), original severity 4) of 0.

The values above are taken from patent publication US4871723A, “Method for treating psoriasis by externally administering to a patient a pharmaceutical composition containing active-type vitamin D” (priority 1984, dated 1989).
